Starred links: 1 amine or outer side, 2 acyl side, 3 side chain; linkers in the order of their positions; H or OH if unused. Positions of bridges follow the written chain, without caps; N, C: chain ends. Non-standard residues stand in square brackets, D forms with d. Residues, ends and D or L forms follow the SMILES beside them. *: point of attachment. Ala(1-CH2CO2H-4-piperidyl) = N[C@@H](CC1CCN(CC(=O)O)CC1)C(=O)O; Phe(3-OCH2COOH) = N[C@@H](Cc1cccc(OCC(=O)O)c1)C(=O)O; Phe(4-COOH) = N[C@@H](Cc1ccc(C(=O)O)cc1)C(=O)O; Piperazinyl(4-CH2COOH) = O=C(O)CN1CCN(*)CC1; Gly(N(CH2)3COOH) = O=C(O)CCCNCC(=O)O; NMe4Pal = CN[C@@H](Cc1ccncc1)C(=O)O; X1 = CCCCCCC[C@H](N[*:1])C(=O)[*:2]; X7 = COCCCCC[C@H](N[*:1])C(=O)[*:2]; X5 = CC(=O)NCCCN(CC(=O)[*:2])[*:1]; Gly(N-(CH2)3OMe) = COCCCNCC(=O)O; NMeF = CN[C@@H](Cc1ccccc1)C(=O)O; 4Pal = N[C@@H](Cc1ccncc1)C(=O)O; NMeA = CN[C@@H](C)C(=O)O; Nme = COCCNCC(=O)O; Sar = CNCC(=O)O

One test deals with T1, Myostatin (Homo sapiens, UniProt O14793).
T1 construct: active myostatin (also called mature myostatin) is a homodimer consisting of two C-terminal growth factor domains; purchased R&D systems 788-G8/CF
T1 sequence (O14793 267-375): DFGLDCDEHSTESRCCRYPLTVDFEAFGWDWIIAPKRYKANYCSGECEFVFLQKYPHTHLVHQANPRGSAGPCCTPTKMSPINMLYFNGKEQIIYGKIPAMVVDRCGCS
In words: HepG2 reporter gene assay, Evaluation Procedure (2): 2-concentrations assay, myostatin inhibition. Type of test: cell-based. The conditions noted are these: Myostatin 10 ng/mL, HepG2; for inhibition at 0.03 µM: peptide 30nM, read-out: Myostatin Inhibition 30nM; for inhibition at 0.1 µM: peptide 100nM, read-out: Myostatin Inhibition 100nM. The gist of the method:
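HepG2 cells (HB-8065, ATCC) carrying the transfected pGL3(CAGA)12-luc reporter plasmid were treated with myostatin (788-G8/CF, R&D systems) at a final concentration of 10 ng/mL plus peptide and incubated at 37°C, 5% CO2 for 20 to 24 hours. Luminescence was read after adding PBS mixed 1:1 with One-Glo substrate, and inhibition rate was calculated.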

The next test has as its target T2, GDF-11 (Homo sapiens, UniProt O95390).
T2 construct: purchased R&D systems 1958-GD-G8/CF
T2 sequence (O95390 299-407): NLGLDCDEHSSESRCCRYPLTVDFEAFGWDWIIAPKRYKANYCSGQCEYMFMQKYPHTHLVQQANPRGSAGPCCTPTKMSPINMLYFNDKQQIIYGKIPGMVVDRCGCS
In words: HepG2 reporter gene assay, Evaluation Procedure (2): 2-concentrations assay, GDF-11 inhibition. Type of test: cell-based. Particulars: GDF-11 10 ng/mL; for inhibition at 0.03 µM: HepG2, peptide 30nM, read-out: GDF11 Inhibition 30nM; for inhibition at 0.1 µM: HepG2, peptide 100nM, read-out: GDF11 Inhibition 100nM. The gist of the method:
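HepG2 cells carrying the transfected pGL3(CAGA)12-luc reporter, a pGL3 vector with luciferase placed downstream of 12 CAGA repeats, were stimulated with GDF-11 at a final 10 ng/mL together with test peptide. Blank wells received no GDF-11 and no peptide. Plates were incubated 20 to 24 hours at 37°C with 5% CO2. Luminescence from One-Glo substrate was read to calculate percent inhibition.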
(Reporter assays use an easily measured gene product as a stand-in for the process of interest.)

For the compound `CCCCCCC[C@@H]1NC(=O)[C@H](Cc2ccncc2)N(C)C(=O)[C@H](CCCNC(=N)N)NC(=O)[C@H](Cc2ccc(C(=O)O)cc2)NC(=O)[C@H](Cc2cccc(OCC(=O)O)c2)NC(=O)CN(C)C(=O)[C@H]([C@@H](C)CC)NC(=O)[C@H](Cc2ccccc2)N(C)C(=O)[C@H](Cc2ccc(O)cc2)NC(=O)[C@H](Cc2c[nH]c3ccccc23)NC(=O)[C@H](C)NC(=O)[C@H](C)NC(=O)CSC[C@H](C(=O)O)NC(=O)[C@H](Cc2ccccc2)N(C)C(=O)[C@H](C)N(C)C1=O` [Myostatin_99_v210] ({CH2CO}-AAWY[NMeF]I[Sar][Phe(3-OCH2COOH)][Phe(4-COOH)]R[NMe4Pal][X1][NMeA][NMeF][dC]-OH; thioether N-15), the inhibition (as a rule, the relative decrease from the control value, in per cent) at 0.03 µM on Myostatin was 95%; at GDF-11 it was 0%. Further, the inhibition at 0.1 µM at Myostatin came out at 99%; at GDF-11, 7%.
Take `CCCCCCC[C@@H]1NC(=O)[C@H](Cc2ccccc2)N(C)C(=O)[C@H](CCCNC(=N)N)NC(=O)[C@H](Cc2ccc(C(=O)O)cc2)NC(=O)[C@H](Cc2cccc(OCC(=O)O)c2)NC(=O)CN(C)C(=O)[C@H]([C@@H](C)CC)NC(=O)[C@H](Cc2ccccc2)N(C)C(=O)[C@H](Cc2ccc(O)cc2)NC(=O)[C@H](Cc2c[nH]c3ccccc23)NC(=O)[C@H](C)NC(=O)[C@H](C)NC(=O)CSC[C@H](C(=O)O)NC(=O)[C@H](Cc2ccncc2)N(C)C(=O)[C@H](C)N(C)C1=O` [Myostatin_99_v213] ({CH2CO}-AAWY[NMeF]I[Sar][Phe(3-OCH2COOH)][Phe(4-COOH)]R[NMeF][X1][NMeA][NMe4Pal][dC]-OH; thioether N-15): the inhibition at 0.03 µM turned out to be 90% at Myostatin and 0% at GDF-11. Moreover, the values for the inhibition at 0.1 µM on Myostatin and at GDF-11 were 98% and 0%, respectively.
As for `CCCCCCC[C@@H]1NC(=O)[C@H](Cc2ccccc2)N(C)C(=O)[C@H](CCCNC(=N)N)NC(=O)[C@H](Cc2ccncc2)NC(=O)[C@H](Cc2cccc(OCC(=O)O)c2)NC(=O)CN(C)C(=O)[C@H]([C@@H](C)CC)NC(=O)[C@H](Cc2ccccc2)N(C)C(=O)[C@H](Cc2ccc(O)cc2)NC(=O)[C@H](Cc2c[nH]c3ccccc23)NC(=O)[C@@H](CCC(=O)O)NC(=O)[C@H](C)NC(=O)CSC[C@H](C(=O)O)NC(=O)[C@H](Cc2ccccc2)N(C)C(=O)[C@H](C)N(C)C1=O` [Myostatin_99_v218] ({CH2CO}-A[dE]WY[NMeF]I[Sar][Phe(3-OCH2COOH)][4Pal]R[NMeF][X1][NMeA][NMeF][dC]-OH; thioether N-15), on Myostatin, the inhibition at 0.03 µM was determined as 44% and the inhibition at 0.1 µM was found to be 74%. In addition, at GDF-11, the inhibition at 0.03 µM is 0% and the inhibition at 0.1 µM is 0%.
Turning to `CCCCCCC[C@@H]1NC(=O)[C@H](Cc2ccccc2)N(C)C(=O)[C@H](CCCNC(=N)N)NC(=O)[C@H](Cc2ccc(C(=O)O)cc2)NC(=O)[C@H](Cc2cccc(OCC(=O)O)c2)NC(=O)CN(C)C(=O)[C@H]([C@@H](C)CC)NC(=O)[C@H](Cc2ccccc2)N(C)C(=O)[C@H](Cc2ccc(O)cc2)NC(=O)[C@H](Cc2c[nH]c3ccccc23)NC(=O)[C@H](C)NC(=O)[C@H](C)NC(=O)CSC[C@@H](C(=O)N2CCN(CC(=O)O)CC2)NC(=O)[C@H](Cc2ccccc2)N(C)C(=O)[C@H](C)N(C)C1=O` [Myostatin_99_v220] ({CH2CO}-AAWY[NMeF]I[Sar][Phe(3-OCH2COOH)][Phe(4-COOH)]R[NMeF][X1][NMeA][NMeF]C-{Piperazinyl(4-CH2COOH)}; thioether N-15), on Myostatin, the inhibition at 0.03 µM came to 95% and the inhibition at 0.1 µM turned out to be 99%. Moreover, on GDF-11, the inhibition at 0.03 µM amounted to 0% and the inhibition at 0.1 µM came out at 5%.
For `CCCCCCC[C@@H]1NC(=O)[C@H](Cc2ccccc2)N(C)C(=O)[C@H](CCCNC(=N)N)NC(=O)[C@H](Cc2ccc(C(=O)O)cc2)NC(=O)[C@H](Cc2ccncc2)NC(=O)CN(C)C(=O)[C@H]([C@@H](C)CC)NC(=O)[C@H](Cc2ccccc2)N(C)C(=O)[C@H](Cc2ccc(O)cc2)NC(=O)[C@H](Cc2c[nH]c3ccccc23)NC(=O)[C@H](C)NC(=O)CN(CC(=O)O)C(=O)CSC[C@H](C(=O)O)NC(=O)[C@H](Cc2ccccc2)N(C)C(=O)[C@H](C)N(C)C1=O` [Myostatin_99_v222] the same measures were 93%, 99%, 0% and 8%.
For `CCCCCCC[C@@H]1NC(=O)[C@H](Cc2ccccc2)N(C)C(=O)[C@H](CCCNC(=N)N)NC(=O)[C@H](Cc2ccc(C(=O)O)cc2)NC(=O)[C@H](Cc2ccncc2)NC(=O)CN(C)C(=O)[C@H]([C@@H](C)CC)NC(=O)[C@H](Cc2ccccc2)N(C)C(=O)[C@H](Cc2ccc(O)cc2)NC(=O)[C@H](Cc2c[nH]c3ccccc23)NC(=O)[C@H](C)NC(=O)CN(CCCOC)C(=O)CSC[C@H](C(=O)O)NC(=O)[C@H](Cc2ccccc2)N(C)C(=O)[C@H](C)N(C)C1=O` [Myostatin_99_v223] ({CH2CO}-[Gly(N-(CH2)3OMe)]AWY[NMeF]I[Sar][4Pal][Phe(4-COOH)]R[NMeF][X1][NMeA][NMeF][dC]-OH; thioether N-15) the same measures were 94%, 99%, 0% and 28%.
For `CCCCCCC[C@@H]1NC(=O)[C@H](Cc2ccccc2)N(C)C(=O)[C@H](CCCNC(=N)N)NC(=O)[C@H](Cc2ccc(C(=O)O)cc2)NC(=O)[C@H](Cc2ccncc2)NC(=O)CN(C)C(=O)[C@H]([C@@H](C)CC)NC(=O)[C@H](Cc2ccccc2)N(C)C(=O)[C@H](Cc2ccc(O)cc2)NC(=O)[C@H](Cc2c[nH]c3ccccc23)NC(=O)[C@H](C)NC(=O)CN(CCOC)C(=O)CSC[C@H](C(=O)O)NC(=O)[C@H](Cc2ccccc2)N(C)C(=O)[C@H](C)N(C)C1=O` [Myostatin_99_v224] ({CH2CO}-[Nme]AWY[NMeF]I[Sar][4Pal][Phe(4-COOH)]R[NMeF][X1][NMeA][NMeF][dC]-OH; thioether N-15) the same measures were 96%, 99%, 0% and 0%.
As to `CCCCCCC[C@@H]1NC(=O)[C@H](Cc2ccccc2)N(C)C(=O)[C@H](CCCNC(=N)N)NC(=O)[C@H](Cc2ccc(C(=O)O)cc2)NC(=O)[C@H](Cc2ccncc2)NC(=O)CN(C)C(=O)[C@H]([C@@H](C)CC)NC(=O)[C@H](Cc2ccccc2)N(C)C(=O)[C@H](Cc2ccc(O)cc2)NC(=O)[C@H](Cc2c[nH]c3ccccc23)NC(=O)[C@H](C)NC(=O)CN(CCCNC(C)=O)C(=O)CSC[C@H](C(=O)O)NC(=O)[C@H](Cc2ccccc2)N(C)C(=O)[C@H](C)N(C)C1=O` [Myostatin_99_v225] ({CH2CO}-[X5]AWY[NMeF]I[Sar][4Pal][Phe(4-COOH)]R[NMeF][X1][NMeA][NMeF][dC]-OH; thioether N-15), on Myostatin, the inhibition at 0.03 µM is 94% and the inhibition at 0.1 µM was 99%. Besides, at GDF-11, the inhibition at 0.03 µM was 0% and the inhibition at 0.1 µM was found to be 3%.
In the case of `CC[C@H](C)[C@@H]1NC(=O)[C@H](Cc2ccccc2)N(C)C(=O)[C@H](Cc2ccc(O)cc2)NC(=O)[C@H](Cc2c[nH]c3ccccc23)NC(=O)[C@H](C)NC(=O)CN(CCCC(=O)O)C(=O)CSC[C@H](C(=O)O)NC(=O)[C@H](Cc2ccccc2)N(C)C(=O)[C@H](C)N(C)C(=O)[C@H](CCCCCOC)NC(=O)[C@H](Cc2ccccc2)N(C)C(=O)[C@H](CCCNC(=N)N)NC(=O)[C@H](Cc2ccc(C(=O)O)cc2)NC(=O)[C@H](Cc2ccncc2)NC(=O)CN(C)C1=O` [Myostatin_99_v228] ({CH2CO}-[Gly(N(CH2)3COOH)]AWY[NMeF]I[Sar][4Pal][Phe(4-COOH)]R[NMeF][X7][NMeA][NMeF][dC]-OH; thioether N-15), the inhibition at 0.03 µM is 19% at Myostatin and 4% at GDF-11. The inhibition at 0.1 µM on Myostatin was 60%; on GDF-11 it was 0%.
Turning to `CCCCCCC[C@@H]1NC(=O)[C@H](Cc2ccccc2)N(C)C(=O)[C@H](CCCNC(=N)N)NC(=O)[C@H](Cc2ccc(C(=O)O)cc2)NC(=O)[C@H](Cc2ccncc2)NC(=O)CN(C)C(=O)[C@H]([C@@H](C)CC)NC(=O)[C@H](Cc2ccccc2)N(C)C(=O)[C@H](Cc2ccc(O)cc2)NC(=O)[C@H](Cc2c[nH]c3ccccc23)NC(=O)[C@H](C)NC(=O)[C@H](CC2CCN(CC(=O)O)CC2)NC(=O)CSC[C@H](C(=O)O)NC(=O)[C@H](Cc2ccccc2)N(C)C(=O)[C@H](C)N(C)C1=O` [Myostatin_99_v232] ({CH2CO}-[Ala(1-CH2CO2H-4-piperidyl)]AWY[NMeF]I[Sar][4Pal][Phe(4-COOH)]R[NMeF][X1][NMeA][NMeF][dC]-OH; thioether N-15), on Myostatin, the inhibition at 0.03 µM turned out to be 58% and the inhibition at 0.1 µM is 84%. At GDF-11, the inhibition at 0.03 µM was found to be 0% and the inhibition at 0.1 µM was found to be 0%.
